What all share (format): cell-based
Assay [1] addresses T1, hTLR8 (human Toll-like receptor 8) (Homo sapiens, UniProt Q9NR97).
T1 construct: host or cells: HEK-Blue hTLR8 cells
T1 sequence (Q9NR97 27-1041): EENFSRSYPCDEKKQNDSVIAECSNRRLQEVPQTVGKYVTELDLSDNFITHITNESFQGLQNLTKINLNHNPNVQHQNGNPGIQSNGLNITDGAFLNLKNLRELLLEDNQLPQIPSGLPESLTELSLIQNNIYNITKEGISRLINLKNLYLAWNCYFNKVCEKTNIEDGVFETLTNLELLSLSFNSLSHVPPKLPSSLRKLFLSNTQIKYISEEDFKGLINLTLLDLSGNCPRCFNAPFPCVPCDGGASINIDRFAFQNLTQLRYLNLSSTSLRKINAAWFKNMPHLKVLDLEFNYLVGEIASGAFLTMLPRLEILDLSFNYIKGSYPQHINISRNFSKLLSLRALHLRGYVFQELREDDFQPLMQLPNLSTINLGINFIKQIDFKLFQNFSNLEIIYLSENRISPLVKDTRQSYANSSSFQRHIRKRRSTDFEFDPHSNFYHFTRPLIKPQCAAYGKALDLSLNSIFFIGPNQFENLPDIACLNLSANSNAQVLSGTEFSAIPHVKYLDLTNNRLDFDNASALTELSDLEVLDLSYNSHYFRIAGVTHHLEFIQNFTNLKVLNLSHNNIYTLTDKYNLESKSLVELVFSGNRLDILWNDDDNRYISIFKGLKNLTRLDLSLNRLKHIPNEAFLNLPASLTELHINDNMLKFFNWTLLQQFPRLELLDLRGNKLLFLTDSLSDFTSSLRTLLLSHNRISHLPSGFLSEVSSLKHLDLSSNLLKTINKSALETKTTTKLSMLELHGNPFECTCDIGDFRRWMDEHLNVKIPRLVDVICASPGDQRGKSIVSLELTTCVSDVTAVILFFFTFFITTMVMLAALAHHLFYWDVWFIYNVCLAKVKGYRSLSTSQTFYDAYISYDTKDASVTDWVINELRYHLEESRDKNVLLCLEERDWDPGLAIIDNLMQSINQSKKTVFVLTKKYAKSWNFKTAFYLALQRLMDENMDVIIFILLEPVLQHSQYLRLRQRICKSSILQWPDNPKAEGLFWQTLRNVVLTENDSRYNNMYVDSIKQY
The assay is described as follows: Agonistic activity of compounds on hTLR8 (HEK-Blue hTLR8 cells, QUANTI-Blue OD650). The following applies: 24 h. The procedure: (§1) In this example, the agonistic activity of the compounds of the present application on hTLR7 (human Toll-like receptor 7) and hTLR8 (human Toll-like receptor 8) was assessed; the induction activity of the compounds on human PBMCs for TNF-α and IFN-α production was assessed in human PBMCs (human peripheral blood mononuclear cells).
(§2) All compounds were formulated in DMSO into 30 mM concentrated stock solutions and preserved at 4° C. […] HEK-Blue hTLR7 and HEK-Blue hTLR8 cell lines were purchased from InvivoGen, and human PBMCs were purchased from Shanghai Saily Biotechnology Co., Ltd. (Cat. No. XFB—HP100B).
(§3) Compound dilution: The compounds of the present application were diluted with DMSO, for example, to about 15 mM. The reference compounds were diluted and then sequentially added to cell plates. […] DMSO was added to the negative control wells at 0.2 μL/well, and the reference compounds were added to the positive control wells. The final concentration of DMSO was 0.2%.
(§4) Cell plating: When an 80% confluence of HEK Blue hTLR7&8 cells in the culture flask was observed under a microscope, the culture medium was discarded, 10 mL of detection medium was added, and the cells were pipetted to form a single-cell suspension. The cells were counted using a cell counter and diluted to 500,000 cells/mL. The cells were plated at 100 μL/50,000 cells/well in the 96-well plates containing the compounds. The compounds and cells were co-incubated in an incubator at 37° C. with 5% CO2 for 24 h.
(§5) Compound activity detection: 20 μL of cell supernatant was taken from each well and added to an experimental plate containing QUANTI-Blue™ reagent at 180 μL/well. The plate was incubated at 37° C. for 1 h, and then the absorbance at 650 nm (OD650) was measured on the multimode microplate reader Flexstation III.
(§6) The EC50 values of the compounds were calculated.

Assay [2] concerns human PBMCs. The assay is described as follows: Induction activity of compounds on IFN-α in human PBMCs (ELISA). The following applies: 24 h. How it is done:
(§7) PBMC cells were treated with the compounds. The compounds of the present application were diluted with DMSO, for example, to about 15 mM. The reference compounds were diluted to 5 mg/mL and then sequentially added to cell plates. The compounds were serially 3-fold diluted to give a total of 8 concentrations and added to cell plates, with two replicate wells set for each concentration. DMSO was added to the negative control wells at 0.4 μL/well, and the reference compounds at 5 mg/mL were added to the positive control wells at 0.4 μL/well. The final concentration of DMSO was 0.2%. Frozen human PBMCs in cryopreservation tubes were quickly thawed in a 37° C. water bath and transferred into 50-mL centrifuge tubes. Pre-warmed RPMI1640 medium was gradually added, and the mixture was well mixed and centrifuged for 15 min before the supernatant was discarded. The cells were resuspended in a culture medium and then counted. The cell suspension was adjusted to 2.5×10^6 cells/mL with the culture medium. Diluted cells were added at 200 μL/500,000 cells/well in the 96-well plates containing the compounds.
(§8) Compound activity data analysis: The OD450 values were converted to TNF-α and IFN-α contents by GraphPad Prism software analysis and fitted to give dose-response curves of the compounds. The EC50 values of the compounds were calculated.
In general terms: ELISA stands for enzyme-linked immunosorbent assay.

For assay [3], the target named is T2, hTLR7 (human Toll-like receptor 7) (Homo sapiens, UniProt Q9NYK1).
T2 construct: host or cells: HEK-Blue hTLR7 cells
T2 sequence (Q9NYK1 27-1049): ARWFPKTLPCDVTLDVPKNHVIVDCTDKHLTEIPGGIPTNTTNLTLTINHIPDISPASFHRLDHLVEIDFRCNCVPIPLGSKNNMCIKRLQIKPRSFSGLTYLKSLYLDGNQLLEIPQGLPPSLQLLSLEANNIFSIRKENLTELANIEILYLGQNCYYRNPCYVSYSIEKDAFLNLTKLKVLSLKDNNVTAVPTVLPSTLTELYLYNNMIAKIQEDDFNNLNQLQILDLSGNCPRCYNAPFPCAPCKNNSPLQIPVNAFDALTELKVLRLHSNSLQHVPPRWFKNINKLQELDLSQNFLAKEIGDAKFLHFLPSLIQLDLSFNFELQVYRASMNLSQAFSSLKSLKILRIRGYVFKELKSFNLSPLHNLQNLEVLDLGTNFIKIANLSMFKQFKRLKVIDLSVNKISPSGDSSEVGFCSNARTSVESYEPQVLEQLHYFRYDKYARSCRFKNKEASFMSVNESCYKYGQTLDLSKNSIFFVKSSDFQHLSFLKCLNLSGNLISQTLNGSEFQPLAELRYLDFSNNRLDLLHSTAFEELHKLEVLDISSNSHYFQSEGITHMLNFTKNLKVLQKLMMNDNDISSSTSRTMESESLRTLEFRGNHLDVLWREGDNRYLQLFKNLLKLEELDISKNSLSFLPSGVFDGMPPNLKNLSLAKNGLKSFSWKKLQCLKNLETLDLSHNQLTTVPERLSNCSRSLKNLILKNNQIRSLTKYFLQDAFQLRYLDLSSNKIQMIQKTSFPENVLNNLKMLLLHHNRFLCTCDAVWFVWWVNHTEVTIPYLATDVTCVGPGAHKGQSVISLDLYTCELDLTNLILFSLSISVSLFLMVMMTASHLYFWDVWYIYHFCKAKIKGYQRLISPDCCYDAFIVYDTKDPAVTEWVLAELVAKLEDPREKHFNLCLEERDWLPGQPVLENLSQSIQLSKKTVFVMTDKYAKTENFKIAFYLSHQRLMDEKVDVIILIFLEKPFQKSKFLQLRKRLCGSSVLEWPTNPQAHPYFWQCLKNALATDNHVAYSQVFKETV
Kind of assay: Agonistic activity of compounds on hTLR7 (HEK-Blue hTLR7 cells, QUANTI-Blue OD650). The following applies: 24 h. How it is done: as §1, §2, §3, §4, §5, §6

The subject of assay [4] is human PBMCs. The assay is described as follows: Induction activity of compounds on TNF-α in human PBMCs (ELISA). The following applies: 24 h. How it is done:
as §7
The plate was then washed 3 times.
as §8

Assay [5] concerns the target T3, hTLR8 (Homo sapiens, UniProt Q9NR97).
T3 construct: tissue Biocytogen; host or cells: spleen cells from hTLR8-C57BL/6 (hTLR8 humanized, knock-in) mice
T3 sequence (Q9NR97 27-1041): T1 sequence (Q9NR97 27-1041)
Kind of assay: Stimulation of spleen cells from hTLR8-C57BL/6 mice with TLR8 agonists (ELISA).

Where only a bound is given, the exact number is not on record here.

For the molecule `CCCCc1nc2c(N)nc3cccc(CCCCCN)c3c2s1` [compound 14], the concentration for a half-maximal effect (EC50) (in general, the concentration giving half of the maximal effect) in assay [1] worked out at 11.6 nM; in assay [2] (PBMC), 74 nM; in assay [3], 191 nM; in assay [4] (PBMC), 147 nM.

As for `CCCCc1nc2c(N)nc3cccc(CCCCCCN)c3c2s1` [compound 17], the EC50 in assay [1] was found to be 173 nM; in assay [2] (PBMC), 50 nM; in assay [3] it was 192 nM; in assay [4] (PBMC), 132 nM.

Regarding `CCCCc1nc2c(N)nc3cccc(CCCCN)c3c2s1` [compound 16], the concentration giving a half-maximal response (EC50) in assay [1] amounted to 55.2 nM; in assay [2] (PBMC), 451 nM; in assay [3], 434 nM; in assay [4] (PBMC), 117 nM.

For the molecule `CCCN(Cc1ccc(N)cc1)C(=O)C1=Cc2ccc(-c3cncc(CO)c3)cc2N=C(N)C1` [compound 10], the 50% effective concentration (EC50) was determined as 33.2 nM in assay [1], 45 nM in assay [2] (PBMC), 6260 nM in assay [3] and 375 nM in assay [4] (PBMC).

For `CCCCc1nc2c(N)nc3cccc(CCCCCN)c3c2o1` [compound 19], the concentration giving a half-maximal response (EC50) in assay [1] turned out to be 11.3 nM; in assay [3], 149 nM.

As to `CCCN(CCC)C(=O)C1=Cc2ccc(-c3ccc(C(=O)N4CCCC4)cc3)cc2N=C(N)C1` [VTX-2337, reference compound], the half-maximal effective concentration (EC50) in assay [1] was 21.1 nM; in assay [2] (PBMC), above 7500 nM; in assay [3] it was above 30000 nM; in assay [4] (PBMC), 1010 nM.

As to `CCCN(Cc1ccc(N)cc1)C(=O)C1=Cc2ccc(-c3ccc4c(c3)C(=O)OC4)cc2N=C(N)C1` [compound 12], the EC50 came out at 432 nM in assay [1], 191 nM in assay [2] (PBMC), 1670 nM in assay [3] and 351 nM in assay [4] (PBMC).

Consider `CCCC[C@](C)(CO)Nc1nc(N)nc2cc(F)cnc12` [GS-9688], for which the “secretion of TNFα and IFNγ by spleen cells” value in assay [5] was “increase in the secretion of TNFα and IFNγ”.

Turning to `CCCN(Cc1ccc(N)cc1)C(=O)C1=Cc2ccc(-c3ccc(C(=O)N4CC[C@@H](O)C4)cc3)cc2N=C(N)C1` [compound 11], the values for the half-maximal effective concentration (EC50) in assay [2] (PBMC) and in assay [4] (PBMC) were 453 nM and 303 nM, respectively.

In the case of `CCOCc1nc2c(N)nc3ccccc3c2n1CC(C)(C)O` [R848, reference compound], the EC50 in assay [2] was found to be 202 nM; in assay [4], 2330 nM.

Consider `CCCN(Cc1cccc(N)c1)C(=O)C1=Cc2ccc(-c3cncc(CO)c3)cc2N=C(N)C1` [compound 13], for which the 50% effective concentration (EC50) in assay [1] turned out to be 60.8 nM; in assay [3] it was 14400 nM.

As for `CCCCc1nc2c(N)nc3cccc(CCCCN)c3c2o1` [compound 20], the concentration giving a half-maximal response (EC50) came to 6.52 nM in assay [1] and 73.3 nM in assay [3].

For the molecule `CCOCc1nc2c(N)nc3cccc(CCCCCN)c3c2s1` [compound 18], the figures for the EC50 in assay [1] and in assay [3] were 260 nM and 1060 nM, respectively.

Values taken from patent US20250345443A1, “PHARMACEUTICAL COMPOUND AND USE THEREOF” (DUALITY BIOLOGICS (SUZHOU) CO., LTD., priority 2022, published 2025).
